pEC50: −log10 of the molar value.
What was measured:
[1] = Antiviral activity against wild type HIV1 BH10 with reverse transcriptase K103N/Y181C double mutant infected human MT4 cells assessed as inhibition of virus-induced cytopathogenicity; assay type: functional, cell-based, Human immunodeficiency virus type 1 BH10; details: Human immunodeficiency virus 1, MT4
[2] = Antiviral activity against wild type HIV1 BH10 infected human MT4 cells assessed as inhibition of virus-induced cytopathogenicity; assay type: functional, cell-based, Human immunodeficiency virus type 1 BH10; details: Human immunodeficiency virus 1, MT4
[3] = Antiviral activity against wild type HIV1 BH10 with reverse transcriptase K103N single mutant infected human MT4 cells assessed as inhibition of virus-induced cytopathogenicity; assay type: functional, cell-based, Human immunodeficiency virus type 1 BH10; details: Human immunodeficiency virus 1, MT4
[4] = Antiviral activity against wild type HIV1 BH10 with reverse transcriptase Y181C single mutant infected human MT4 cells assessed as inhibition of virus-induced cytopathogenicity; assay type: functional, cell-based, Human immunodeficiency virus type 1 BH10; details: Human immunodeficiency virus 1, MT4
[5] = Metabolic stability of the compound in dog hepatocytes assessed as compound remaining after 4 hrs; assay type: ADME, cell-based, Canis lupus familiaris, Hepatocyte; details: read-out: Stability
[6] = Metabolic stability of the compound in human hepatocytes assessed as compound remaining after 4 hrs; assay type: ADME, cell-based, Hepatocyte; details: read-out: Stability
[7] = Half life in rat at 5 mg/kg, po; assay type: ADME, organism-based; set-up: dose 5 mg/kg, route oral; details: in vivo
[8] = Metabolic stability of the compound in monkey hepatocytes assessed as compound remaining after 4 hrs; assay type: ADME, cell-based, Macaca mulatta, Hepatocyte; details: rhesus monkey, read-out: Stability
[9] = Clearance in rat at 5 mg/kg, po; assay type: ADME, organism-based; set-up: dose 5 mg/kg, route oral; details: in vivo
[10] = Oral bioavailability in rat at 5 mg/kg; assay type: ADME, organism-based; details: in vivo
[11] = Metabolic stability of the compound in rat hepatocytes assessed as compound remaining after 4 hrs; assay type: ADME, cell-based, Hepatocyte; details: read-out: Stability

CCOP(=O)(c1ccccc1)c1c(C(N)=O)[nH]c2ccc(Cl)cc12 (stereo unspecified)
pEC50 [1]: < 5.90
pEC50 [2]: 8.92
pEC50 [3]: 7.79
pEC50 [4]: 7.86

NC(=O)c1[nH]c2ccc(Cl)cc2c1P(=O)(OCc1ccccc1)c1ccccc1 (stereo unspecified)
pEC50 [1]: < 5.90
pEC50 [2]: 7.47
pEC50 [3]: < 5.90
pEC50 [4]: < 5.90

CN(C)P(=O)(c1ccccc1)c1c(C(N)=O)[nH]c2ccc(Cl)cc12 (stereo unspecified)
pEC50 [1]: < 5.90
pEC50 [2]: 7.86
pEC50 [3]: < 5.90
pEC50 [4]: 6.33

NC(=O)c1[nH]c2ccc(Cl)cc2c1P(=O)(c1ccccc1)c1ccccc1
pEC50 [2]: < 5.90

CP(=O)(c1ccccc1)c1c(C(N)=O)[nH]c2ccc(Cl)cc12 (stereo unspecified)
pEC50 [1]: < 5.90
pEC50 [2]: 9.10
pEC50 [3]: 5.86
pEC50 [4]: 6.58

NC(=O)c1[nH]c2ccc(Cl)cc2c1P(=O)(O)c1ccccc1
pEC50 [2]: < 5.90

COP(=S)(c1ccccc1)c1c(C(N)=O)[nH]c2ccc(Cl)cc12 (stereo unspecified)
pEC50 [1]: < 5.90
pEC50 [2]: 9.40
pEC50 [3]: 7.05
pEC50 [4]: 7.38

CO[P@](=O)(c1ccccc1)c1c(C(N)=O)[nH]c2ccc(Cl)cc12
pEC50 [1]: 6.86
pEC50 [2]: 10.00
pEC50 [3]: 8.92
pEC50 [4]: 8.44

CO[P@@](=O)(c1ccccc1)c1c(C(N)=O)[nH]c2ccc(Cl)cc12
pEC50 [1]: < 5.90
pEC50 [2]: 6.74
pEC50 [3]: < 5.90
pEC50 [4]: < 5.90

COP(=O)(c1ccccc1)c1c(C(N)=O)[nH]c2ccc(Cl)cc12 (racemic)
remaining at 4 h [5]: 100%
remaining at 4 h [6]: 99%
half-life [7]: 1.19 h
remaining at 4 h [8]: 49%
CL/F [9]: 2.85 mL/min/kg
bioavailability [10]: 107%
pEC50 [1]: 6.35
pEC50 [2]: 9.15
pEC50 [3]: 8.17
pEC50 [4]: 8.00
remaining at 4 h [11]: 100%
